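A five-concentration, 48-hour dose response in 96-well plates underlies each endpoint, interpolated linearly between surrounding concentrations. At the TGI there is no net growth.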
Assays:
Test in all cases: growth of human tumour cells (NCI), 48 h
[1] = test system: ACHN renal
[2] = test system: SNB-19 CNS
[3] = test system: T-47D breast
[4] = test system: MALME-3M melanoma
[5] = test system: OVCAR-5 ovarian
[6] = test system: HCT-116 colon
[7] = test system: UACC-257 melanoma
[8] = test system: RPMI-8226 leukemia
[9] = test system: OVCAR-8 ovarian
[10] = test system: EKVX NSCLC
[11] = test system: MDA-MB-435
[12] = test system: 786-0 renal
[13] = test system: UO-31 renal
[14] = test system: NCI/ADR-RES ovarian
[15] = test system: HL-60(TB) leukemia
[16] = test system: OVCAR-3 ovarian
[17] = test system: RXF 393 renal
[18] = test system: SR leukemia
[19] = test system: NCI-H23 lung
[20] = test system: SF-539 CNS
[21] = test system: SF-268 CNS
[22] = test system: SK-MEL-28 melanoma
[23] = test system: TK-10 renal
[24] = test system: COLO 205 colon
[25] = test system: LOX IMVI melanoma
[26] = test system: NCI-H522 lung
[27] = test system: MDA-MB-231 breast
[28] = test system: HCC-2998 colon
[29] = test system: KM12 colon
[30] = test system: CAKI-1 renal
[31] = test system: HOP-92 NSCLC
[32] = test system: MCF7 breast
[33] = test system: UACC-62 melanoma
[34] = test system: BT-549 breast
[35] = test system: U251 CNS
[36] = test system: M14 melanoma
[37] = test system: IGROV1 ovarian
[38] = test system: SF-295 CNS
[39] = test system: NCI-H226 lung
[40] = test system: DU-145 prostate
[41] = test system: SK-MEL-5 melanoma
[42] = test system: K-562 leukemia
[43] = test system: HOP-62 NSCLC
[44] = test system: SK-MEL-2 melanoma
[45] = test system: SK-OV-3 ovarian
[46] = test system: A549 NSCLC
[47] = test system: HS 578T breast
[48] = test system: PC-3 prostate
[49] = test system: SW-620 colon
[50] = test system: NCI-H460 lung
[51] = test system: HT29 colon
[52] = test system: HCT-15 colon
[53] = test system: SN12C renal
[54] = test system: A498 renal

Structure (SMILES): CCCCCCN(CCCCCC)CCC(=O)c1ccc2cc(Br)c3ccccc3c2c1
- TGI [1]: > 100 µM
- TGI [2]: > 100 µM
- TGI [3]: 60.5 µM
- TGI [4]: > 100 µM
- TGI [5]: > 100 µM
- TGI [6]: > 100 µM
- TGI [7]: > 100 µM
- TGI [8]: > 100 µM
- TGI [9]: > 100 µM
- TGI [10]: > 100 µM
- TGI [11]: 74.3 µM
- TGI [12]: > 100 µM
- TGI [13]: > 100 µM
- TGI [14]: > 100 µM
- TGI [15]: 56.2 µM
- TGI [16]: > 100 µM
- TGI [17]: 64.3 µM
- TGI [18]: 14.3 µM
- TGI [19]: > 100 µM
- TGI [20]: 52.5 µM
- TGI [21]: > 100 µM
- TGI [22]: > 100 µM
- TGI [23]: 65.2 µM
- TGI [24]: 80.4 µM
- TGI [25]: 98.3 µM
- TGI [26]: 87.1 µM
- TGI [27]: 67.4 µM
- TGI [28]: > 100 µM
- TGI [29]: 52.9 µM
- TGI [30]: > 100 µM
- TGI [31]: 64.9 µM
- TGI [32]: 54.9 µM
- TGI [33]: 74.5 µM
- TGI [34]: 51.6 µM
- TGI [35]: > 100 µM
- TGI [36]: > 100 µM
- TGI [37]: > 100 µM
- TGI [38]: > 100 µM
- TGI [39]: > 100 µM
- TGI [40]: > 100 µM
- TGI [41]: 96.1 µM
- TGI [42]: > 100 µM
- TGI [43]: > 100 µM
- TGI [44]: 92.9 µM
- TGI [45]: > 100 µM
- TGI [46]: > 100 µM
- TGI [47]: > 100 µM
- TGI [48]: > 100 µM
- TGI [49]: > 100 µM
- TGI [50]: > 100 µM
- TGI [51]: > 100 µM
- TGI [52]: > 100 µM
- TGI [53]: > 100 µM
- TGI [54]: > 100 µM
